Experimental data from patent publication US7053178B2, “Synthetic peptides and kits for diagnosis of anti-phospholipid syndrome” (Yeda Research Development Co., LTD, priority 1998, dated 2006).
Where no end group is shown, it is not given here.

Columns and labels:
anti-β2GPI G-3 mAb = assay: ELISA for adhesion molecule expression on HUVEC exposed to G-3 mAb; assay type: cell-based, human; settings: G-3 mAb preincubated with peptide
Protocol: (§1) FIG. 4 is a bar graph showing inhibition of expression of the adhesion molecules E-selectin, intracellular adhesion molecule-1 (ICAM-1) and vascular cell adhesion molecule-1 (VCAM-1) on HUVEC by specific inhibitory monomer peptides A, B, or C. To the HUVEC incubated with β2GPI, were added anti-β2GPI ILA-1, ILA-3 and G-3 mAbs with and without preincubation (2 h) with the peptide monomers A, B and C, respectively, and control peptide D. The expression of adhesion molecules was probed by ELISA employing biotinylated anti-human ICAM-1, VCAM-1, E-selectin and streptavidin-alkaline phosphatase. Each point represents mean±SD of three different experiments.
(§2) (h) ELISA for detecting the expression of adhesion molecules following exposure to anti-β2GPI mAbs and the inhibitory peptides. HUVEC cells grown in 96-well plates and preincubated with mAbs, with and without different concentrations of specific and irrelevant peptides (100 ug/ml), were washed, fixed with 0.1% glutaraldehyde, and then treated with PBS containing 0.2% Triton-X100 in order to permeabilize the cell membrane (Adamson et al., 1996). The plates were blocked with 3% BSA and incubated with biotinylated mouse anti-human E-selectin, anti-human intracellular adhesion molecule-1 (ICAM-1) or anti-human vascular cell adhesion molecule-1 (VCAM-1) (PharMingen, Torreyana Road, San Diego, Calif.) 1 μg/ml for 1 hour. The cells were then exposed to streptavidin alkaline phosphatase (Jackson) and appropriate substrate.
(§3) The enhancement of monocytes to endothelial cells followed by increase in the amount of adhesion molecules expression, as a result of exposure of endothelial cells to anti-β2GPI mAbs, has been observed previously at the laboratory of one of the present inventors. The effect of each specific peptide monomer A, B, C on the expression of the adhesion molecules E-selectin, ICAM-1 and VCAM-1 on HUVEC caused by the corresponding anti-β2GPI mAb, was examined according to Materials and Methods, section (h). […]

anti-β2GPI ILA-3 mAb [1] = assay: Cyto-ELISA: inhibition of ILA-3 mAb binding to HUVEC; set-up: species or system human; settings: peptide concentration of 10 μM
Protocol: (§4) FIGS. 2A–2C are graphs showing inhibition of the anti-β2GPI ILA-1, ILA-3 and G-3 mAbs binding to human umbilical vein endothelial cells (HUVEC) by competition assays using increasing concentrations of the inhibitory monomer peptides A, B and C, respectively, and of unrelated peptide D as control. The percent of inhibition was calculated as in FIG. 1 above. Each point represents mean±SD of three different experiments.
(f) Anti-β2GPI mAb binding to endothelial cells in the presence of the inhibitory peptides. Human umbilical vein endothelial cells (HUVEC) were isolated as previously described and cultured under standard conditions (Jaffe et al., 1973). Briefly, umbilical cords were treated with collagenase (0.2% from Clostridium histolyticum, Boehringer) for 20 min at 37° C., cells were cultured in medium 199 with 20% FCS, 10 μg/ml growth supplement, 100 μg/ml heparin and antibiotics (streptomycin, penicillin), and used at passages 1–2 for plating onto gelatin-coated 96-well plates. Cyto-ELISA was performed as detailed before (Jaffe et al., 1973). Briefly, mAbs at different concentrations were added to HUVEC confluent wells, previously coated with 10 μg/ml β2GPI for 2 hours and fixed with 0.1% glutaraldehyde. The bound mAb was detected by further 1-hour incubation with alkaline phosphatase-conjugated goat anti-human IgM. […]

anti-β2GPI ILA-3 mAb [2] = assay: ELISA for adhesion molecule expression on HUVEC exposed to ILA-3 mAb; assay type: cell-based, human
Protocol: as §1, §2, §3

anti-β2GPI ILA-3 mAb [3] = assay: Competition ELISA: inhibition of ILA-3 mAb binding to β2GPI; set-up: species or system human; settings: 10 μM peptide concentration
Protocol: as §4, with “1A–1C” for “2A–2C”, “β2GPI” for “human umbilical vein endothelial cells (HUVEC)”, “follows: % inhibition=O.D control−O.D with inhibitor/O.D control×100.” for “in FIG. 1 above.”
(e) Inhibition of anti-β2GPI mAb binding to β2GPI by the inhibitory peptides. For competition ELISA tests, the anti-β2GPI mAbs (10 μg/ml) were preincubated (overnight at 4° C.) with varying concentrations of the peptides. The competition reaction was then transferred to β2GPI-coated γ-irradiated ELISA plates (Nunc), and the assay continued as described above. The percentage of inhibition was calculated as follows: % inhibition=O.D control −O.D with inhibitor/O.D control×100.
(2a) The specificity of interaction of the mAbs with the corresponding synthetic peptides A, B, C and control peptide D as monomers, was assessed by inhibition experiments as described in Materials and Methods, sections (e) and (f).

Sequence	E-selectin expression by HUVEC (anti-β2GPI G-3 mAb)	ICAM-1 expression by HUVEC (anti-β2GPI G-3 mAb)	VCAM-1 expression by HUVEC (anti-β2GPI G-3 mAb)	inhibition of ILA-3 mAb binding to HUVEC (anti-β2GPI ILA-3 mAb [1])	ICAM-1 expression by HUVEC (anti-β2GPI ILA-3 mAb [2]; HUVEC exposed to ILA-3 mAb)	VCAM-1 expression by HUVEC (anti-β2GPI ILA-3 mAb [2]; HUVEC exposed to ILA-3 mAb)	E-selectin expression by HUVEC (anti-β2GPI ILA-3 mAb [2]; ILA-3 mAb preincubated with peptide)	inhibition of ILA-3 mAb binding to β2GPI (anti-β2GPI ILA-3 mAb [3])
CATLRVYKGG [Peptide C]	0.215±0.047 O.D.	0.186±0.062 O.D.	0.174±0.062 O.D.					
KDKATFGTHDG [Peptide B]				72%	abrogated	abrogated	0.211±0.064 O.D.	77%
